Legend:
[1] = tested on: MCF7; assay: Log of molar concentration leading to 50% cell death against breast cancer MCF 7 cell line was reported; format: functional; settings: Homo sapiens, read-out: Log LC50 (the source's name) (converted)
[2] = tested on: 786-0; assay: In vitro total growth inhibition against renal cancer […] cell lines was reported.; format: functional; settings: Homo sapiens, read-out: Log TGI (converted)
[3] = tested on: T47D; assay: In vitro growth inhibition against breast cancer […] cell line was reported.; format: functional; settings: Homo sapiens
[4] = tested on: T47D; assay: In vitro total growth inhibition against breast cancer […] cell lines was reported.; format: functional; settings: Homo sapiens, read-out: Log TGI (converted)
[5] = tested on: M14; assay: Log of molar concentration leading to 50% cell death against melanoma M14 cell line was reported; format: functional; settings: Homo sapiens, read-out: Log LC50 (the source's name) (converted)
[6] = tested on: SK-MEL-5; assay: In vitro total growth inhibition against melanoma SK-MEL-5 cell lines was reported.; format: functional; settings: Homo sapiens, read-out: Log TGI (converted)
[7] = tested on: HOP-92; assay: In vitro total growth inhibition against non-small-cell lung cancer HOP-92 cell lines was reported.; settings: Homo sapiens, read-out: Log TGI (converted)
[8] = tested on: RPMI-8226; assay: In vitro growth inhibition against leukemia […] cell line was reported.; format: functional; settings: Homo sapiens
[9] = tested on: OVCAR-3; assay: Log of molar concentration leading to 50% cell death against ovarian cancer OVCAR-3 cell line was reported; format: functional; settings: Homo sapiens, read-out: Log LC50 (the source's name) (converted)
[10] = tested on: MDA-N; assay: In vitro growth inhibition against breast cancer MDA-N cell line was reported.; format: functional; settings: Homo sapiens
[11] = tested on: U-251; assay: In vitro growth inhibition against CNS cancer U251 cell line was reported.; format: functional; settings: Homo sapiens
[12] = tested on: Tumor Cell line; assay: In vitro total growth inhibition for 50 cell lines was reported as log of molar concentration; format: functional, Homo sapiens
[13] = tested on: SF-539; assay: Log of molar concentration leading to 50% cell death against CNS cancer SF-539 cell line was reported; format: functional; settings: Homo sapiens, read-out: Log LC50 (the source's name) (converted)
[14] = tested on: TK-10; assay: In vitro growth inhibition against renal cancer TK-10 cell line was reported.; format: functional; settings: Homo sapiens
[15] = tested on: OVCAR-3; assay: In vitro growth inhibition against ovarian cancer OVCAR-3 cell line was reported.; format: functional; settings: Homo sapiens
[16] = tested on: NCI-H522; assay: Log of molar concentration leading to 50% cell death against non-small-cell lung cancer NCI-522 cell line was reported; format: functional; settings: Homo sapiens, read-out: Log LC50 (the source's name) (converted)
[17] = tested on: SR; assay: In vitro total growth inhibition against leukemia SR cell lines was reported.; format: functional; settings: Homo sapiens, read-out: Log TGI (converted)
[18] = tested on: SK-MEL-2; assay: Log of molar concentration leading to 50% cell death against melanoma SK-MEL-2 cell line was reported; format: functional; settings: Homo sapiens, read-out: Log LC50 (the source's name) (converted)
[19] = tested on: SF-295; assay: In vitro growth inhibition against CNS cancer SF-295 cell line was reported.; format: functional; settings: Homo sapiens
[20] = tested on: NCI/ADR-RES; assay: In vitro growth inhibition against breast cancer NCI/ADR-RES cell line was reported.; format: functional; settings: Homo sapiens
[21] = tested on: MOLT-4; assay: In vitro growth inhibition against leukemia MOLT-4 cell line was reported.; format: functional; settings: Homo sapiens
[22] = tested on: SNB-75; assay: In vitro growth inhibition against CNS cancer SNB-75 cell line was reported.; format: functional; settings: Homo sapiens
[23] = tested on: COLO 205; assay: Log of molar concentration leading to 50% cell death against colon cancer COLO 205 cell line was reported; format: functional; settings: Homo sapiens, read-out: Log LC50 (the source's name) (converted)
[24] = tested on: MCF7; assay: In vitro growth inhibition against breast cancer MCF 7 cell line was reported.; format: functional; settings: Homo sapiens
[25] = tested on: SF-295; assay: In vitro total growth inhibition against CNS cancer SF-295 cell lines was reported.; format: functional; settings: Homo sapiens, read-out: Log TGI (converted)
[26] = tested on: SF-295; assay: Log of molar concentration leading to 50% cell death against CNS cancer SF-295 cell line was reported; format: functional; settings: Homo sapiens, read-out: Log LC50 (the source's name) (converted)
[27] = tested on: TK-10; assay: Log of molar concentration leading to 50% cell death against renal cancer TK-10 cell line was reported; format: functional; settings: Homo sapiens, read-out: Log LC50 (the source's name) (converted)
[28] = tested on: SR; assay: In vitro growth inhibition against leukemia SR cell line was reported.; format: functional; settings: Homo sapiens
[29] = tested on: UACC-62; assay: In vitro growth inhibition against melanoma UACC-62 cell line was reported.; format: functional; settings: Homo sapiens
[30] = tested on: A549; assay: In vitro total growth inhibition against non-small-cell lung cancer A 549/ATCC cell lines was reported.; format: functional; settings: Homo sapiens, read-out: Log TGI (converted)
[31] = tested on: HL-60; assay: In vitro total growth inhibition against leukemia HL-60(TB) cell lines was reported.; format: functional; settings: Homo sapiens, read-out: Log TGI (converted)
[32] = tested on: U-251; assay: In vitro total growth inhibition against CNS cancer U251 cell lines was reported.; format: functional; settings: Homo sapiens, read-out: Log TGI (converted)
[33] = tested on: OVCAR-4; assay: In vitro growth inhibition against ovarian cancer OVCAR-4 cell line was reported.; format: functional; settings: Homo sapiens
[34] = tested on: CCRF-CEM; assay: In vitro growth inhibition against leukemia CCRF-CEM cell line was reported.; format: functional; settings: Homo sapiens
[35] = tested on: UO-31; assay: In vitro total growth inhibition against renal cancer UO-31 cell lines was reported.; format: functional; settings: Homo sapiens, read-out: Log TGI (converted)
[36] = tested on: OVCAR-8; assay: Log of molar concentration leading to 50% cell death against ovarian cancer OVCAR-8 cell line was reported; format: functional; settings: Homo sapiens, read-out: Log LC50 (the source's name) (converted)
[37] = tested on: RXF 393; assay: In vitro growth inhibition against renal cancer RXF 393 cell line was reported.; format: functional; settings: Homo sapiens
[38] = tested on: RPMI-8226; assay: Log of molar concentration leading to 50% cell death against leukemia […] cell line was reported; format: functional; settings: Homo sapiens, read-out: Log LC50 (the source's name) (converted)
[39] = tested on: RXF 393; assay: Log of molar concentration leading to 50% cell death against renal cancer RXF 393 cell line was reported; format: functional; settings: Homo sapiens, read-out: Log LC50 (the source's name) (converted)
[40] = tested on: Tumor Cell line; assay: Log of molar concentration leading to 50% cell death was reported; format: functional; settings: Homo sapiens, read-out: Log LC50 (the source's name) (converted)
[41] = species: Homo sapiens; assay: In vitro total growth inhibition against non-small-cell lung cancer EKVX cell lines was reported.; format: functional; settings: read-out: Log TGI (converted)
[42] = tested on: UACC-257; assay: Log of molar concentration leading to 50% cell death against melanoma UACC-257 cell line was reported; format: functional; settings: Homo sapiens, read-out: Log LC50 (the source's name) (converted)
[43] = tested on: ACHN; assay: In vitro growth inhibition against renal cancer ACHN cell line was reported.; format: functional; settings: Homo sapiens
[44] = tested on: NCI-H23; assay: In vitro total growth inhibition against non-small-cell lung cancer NCI-H23 cell lines was reported.; format: functional; settings: Homo sapiens, read-out: Log TGI (converted)
[45] = tested on: UACC-257; assay: In vitro total growth inhibition against melanoma UACC-257 cell line was reported.; format: functional; settings: Homo sapiens
[46] = tested on: LOX IMVI; assay: In vitro total growth inhibition against melanoma LOX IMVI cell lines was reported.; format: functional; settings: Homo sapiens, read-out: Log TGI (converted)
[47] = tested on: TK-10; assay: In vitro total growth inhibition against renal cancer TK-10 cell lines was reported.; format: functional; settings: Homo sapiens, read-out: Log TGI (converted)
[48] = tested on: A549; assay: In vitro growth inhibition against non-small-cell lung cancer A 549/ATCC cell line was reported.; format: functional; settings: Homo sapiens
[49] = tested on: RPMI-8226; assay: In vitro total growth inhibition against leukemia […] cell lines was reported.; format: functional; settings: Homo sapiens, read-out: Log TGI (converted)
[50] = tested on: M14; assay: In vitro growth inhibition against melanoma M14 cell line was reported.; format: functional; settings: Homo sapiens
[51] = tested on: CAKI-1; assay: In vitro total growth inhibition against renal cancer CAKI-1cell lines was reported.; format: functional; settings: Homo sapiens, read-out: Log TGI (converted)
[52] = tested on: EKVX; assay: In vitro growth inhibition against non-small-cell lung cancer EKVX cell line was reported.; format: functional; settings: Homo sapiens
[53] = tested on: KM12; assay: In vitro total growth inhibition against colon cancer KM12 cell lines was reported.; format: functional; settings: Homo sapiens, read-out: Log TGI (converted)
[54] = tested on: SF-539; assay: In vitro total growth inhibition against CNS cancer SF-539 cell lines was reported.; format: functional; settings: Homo sapiens, read-out: Log TGI (converted)
[55] = tested on: HL-60; assay: Log of molar concentration leading to 50% cell death against leukemia HL-60(TB) cell line was reported; format: functional; settings: Homo sapiens, read-out: Log LC50 (the source's name) (converted)
[56] = tested on: NCI-H322M; assay: In vitro growth inhibition against non-small-cell lung cancer […] cell line was reported.; format: functional; settings: Homo sapiens
[57] = tested on: NCI-H46; assay: In vitro growth inhibition against non-small-cell lung cancer […] cell line was reported.; format: functional; settings: Homo sapiens
[58] = tested on: 786-0; assay: Log of molar concentration leading to 50% cell death against renal cancer […] cell line was reported; format: functional; settings: Homo sapiens, read-out: Log LC50 (the source's name) (converted)
[59] = tested on: PC-3; assay: Log of molar concentration leading to 50% cell death against prostate cancer PC-3 cell line was reported; format: functional; settings: Homo sapiens, read-out: Log LC50 (the source's name) (converted)
[60] = tested on: HCT-116; assay: In vitro growth inhibition against colon cancer HCT116 cell line was reported.; format: functional; settings: Homo sapiens
[61] = tested on: CAKI-1; assay: In vitro growth inhibition against renal cancer CAKI-1 cell line was reported.; format: functional; settings: Homo sapiens

Cc1ccc2cccc(NC(=O)c3cc4c(cc3Cl)Sc3nccn3S4(=O)=O)c2n1
CC50 [1]: 38.9 µM | TGI [2]: 38 µM | GI50 [3]: 2.4 µM | TGI [4]: 6.31 µM | CC50 [5]: 57.5 µM | TGI [6]: 23.4 µM | TGI [7]: 67.6 µM | GI50 [8]: 1.7 µM | CC50 [9]: 34.7 µM | GI50 [10]: 13.8 µM | GI50 [11]: 3.47 µM | Log GTI [12]: -4.01 | CC50 [13]: 25.7 µM | GI50 [14]: 8.51 µM | GI50 [15]: 2.95 µM | CC50 [16]: 66.1 µM | TGI [17]: 5.89 µM | CC50 [18]: 77.6 µM | GI50 [19]: 11.5 µM | GI50 [20]: 14.5 µM | GI50 [21]: 4.57 µM | GI50 [22]: 6.92 µM | CC50 [23]: 55 µM | GI50 [24]: 3.24 µM | TGI [25]: 24.5 µM | CC50 [26]: 53.7 µM | CC50 [27]: 45.7 µM | GI50 [28]: 2.24 µM | GI50 [29]: 14.5 µM | TGI [30]: 25.7 µM | TGI [31]: 0.01 µM | TGI [32]: 14.5 µM | GI50 [33]: 11 µM | GI50 [34]: 2.51 µM | TGI [35]: 42.7 µM | CC50 [36]: 53.7 µM | GI50 [37]: 9.55 µM | CC50 [38]: 8.51 µM | CC50 [39]: 64.6 µM | CC50 [40]: 91.2 µM | TGI [41]: 25.7 µM | CC50 [42]: 51.3 µM | GI50 [43]: 8.51 µM | TGI [44]: 56.2 µM | GI50 [45]: 13.8 µM | TGI [46]: 18.2 µM | TGI [47]: 20.9 µM | GI50 [48]: 12.3 µM | TGI [49]: 3.8 µM | GI50 [50]: 7.24 µM | TGI [51]: 63.1 µM | GI50 [52]: 17 µM | TGI [53]: 19.1 µM | TGI [54]: 4.9 µM | CC50 [55]: 3.8 µM | GI50 [56]: 12 µM | GI50 [57]: 2.63 µM | CC50 [58]: 91.2 µM | CC50 [59]: 32.4 µM | GI50 [60]: 4.57 µM | GI50 [61]: 23.4 µM

— ChEMBL document CHEMBL1135808, “A new type of mixed anhydride and its applications to the synthesis of 7-substituted 8-chloro-5,5-dioxoimidazo[1,2-b][1,4,2]benzodithiazines with in vitro antitumor activity” (2002)
